According to patent publication US20240307426A1, “USE OF SGLT-2 INHIBITORS FOR THE PREVENTION AND/OR TREATMENT OF RENAL DISEASES IN NON-HUMAN MAMMALS” (BOEHRINGER INGELHEIM VETMEDICA GMBH, priority 2021, published 2024):

What was measured:
[1] = test system: client owned cats with CKD (IRIS stage 3); assay: Exploratory clinical field study - cats (Example 1); assay type: in vivo, cat; details: CKD IRIS stage 3, 0.1 mg/kg bodyweight orally once daily
Description: (§1) Client owned patients diagnosed with CKD (IRIS stage 3) diagnosed via physical examination and biomarker levels are orally treated once daily with velagliflozin 0.1 mg/kg bodyweight. During the study period the body weight, body condition score, biomarker levels (creatinine and SDMA), presence of concomitant conditions and need for further medication are examined on regular basis during the visits at the site by the investigator. The parameters examined are creatinine and SDMA levels, proteinuria, blood pressure, quality of life, and hydration status. Additionally, variables as the delayed onset of renal failure, survival time of the cat patients, IRiS stage progression and renal related mortality and/or morbidity are observed.

[2] = test system: client owned dogs with CKD (IRIS stage 3); assay: Exploratory clinical field study - dogs (Example 2); assay type: in vivo, dog; details: CKD IRIS stage 3, 0.3 mg/kg bodyweight orally once daily
Description: as §1, with “velagliflozin 0.3” for “velagliflozin 0.1”, “SDMA), proteinuria,” for “SDMA),”, “blood pressure” for “blood pressure, quality of life,”, “the dog” for “the cat”

[3] = test system: client owned dogs with CKD; assay: Exploratory clinical field trial in client owned dogs with CKD (Example 4); assay type: in vivo, dog; details: 0.05 mg/kg bodyweight orally once daily
Description: as §1, with “CKD” for “CKD (IRIS stage 3)”, “velagliflozin 0.05” for “velagliflozin 0.1”, “SDMA), proteinuria,” for “SDMA),”, “blood pressure” for “blood pressure, quality of life,”, “the dog” for “the cat”, “patients, IRIS” for “patients, IRiS”

N#Cc1ccc([C@@H]2O[C@H](CO)[C@@H](O)[C@H](O)[C@H]2O)cc1Cc1ccc(C2CC2)cc1 [velagliflozin, Velagliflozin]
effect on renal function [1]: beneficial effect on renal function
progression of the disease [1]: delay in progression of the disease
effect on renal function [2]: beneficial effect on renal function
progression of the disease [2]: delay in progression of the disease
effect on renal function [3]: beneficial effect on renal function
progression of the disease [3]: delay in progression of the disease
